What was measured:
[1] = Inhibition of Hepatitis C virus genotype 1a H77 replicon NS5A transfected in human HuH7 cells assessed as decrease in replication of viral replicon after 4 days by luciferase reporter gene assay; assay type: cell-based, Hepatitis C virus (isolate H77); settings: Huh-7, 96 h
[2] = Inhibition of Hepatitis C virus genotype 1a H77 replicon NS5A transfected in human HuH7 cells assessed as decrease in replication of viral replicon in presence of 40% human plasma after 4 days by luciferase reporter gene assay; assay type: cell-based, Hepatitis C virus (isolate H77); settings: Huh-7, Plasma, 96 h
[3] = Inhibition of Hepatitis C virus genotype 1b Con1 replicon NS5A transfected in human HuH7 cells assessed as decrease in replication of viral replicon after 4 days by luciferase reporter gene assay; assay type: cell-based, Hepatitis C virus (isolate Con1); settings: Huh-7, 96 h
[4] = Inhibition of Hepatitis C virus genotype 1b Con1 replicon NS5A transfected in human HuH7 cells assessed as decrease in replication of viral replicon in presence of 40% human plasma after 4 days by luciferase reporter gene assay; assay type: cell-based, Hepatitis C virus (isolate Con1); settings: Huh-7, Plasma, 96 h
[5] = Inhibition of Hepatitis C virus genotype 2a replicon NS5A transfected in human HuH7 cells assessed as decrease in replication of viral replicon after 4 days by luciferase reporter gene assay; assay type: cell-based, Hepatitis C virus subtype 2a; settings: Huh-7, 96 h
[6] = Inhibition of Hepatitis C virus genotype 2b replicon NS5A transfected in human HuH7 cells assessed as decrease in replication of viral replicon after 4 days by luciferase reporter gene assay; assay type: cell-based, Hepatitis C virus subtype 2b; settings: Huh-7, 96 h
[7] = Inhibition of Hepatitis C virus genotype 3a replicon NS5A transfected in human HuH7 cells assessed as decrease in replication of viral replicon after 4 days by luciferase reporter gene assay; assay type: cell-based, Hepatitis C virus subtype 3a; settings: Huh-7, 96 h
[8] = Inhibition of Hepatitis C virus genotype 4a replicon NS5A transfected in human HuH7 cells assessed as decrease in replication of viral replicon after 4 days by luciferase reporter gene assay; assay type: cell-based, Hepatitis C virus subtype 4a; settings: Huh-7, 96 h
[9] = tested on: Hepatitis C virus (isolate H77); test: Ratio of EC50 for Hepatitis C virus genotype 1a H77 replicon NS5A in presence of 40% human plasma to EC50 for Hepatitis C virus genotype 1a H77 replicon NS5A in absence of 40% human plasma
[10] = Inhibition of Hepatitis C virus genotype 6a replicon NS5A transfected in human HuH7 cells assessed as decrease in replication of viral replicon after 4 days by luciferase reporter gene assay; assay type: cell-based, Hepatitis C virus subtype 6a; settings: Huh-7, 96 h
[11] = Inhibition of Hepatitis C virus genotype 1a H77 replicon NS5A M28T mutant transfected in human HuH7 cells assessed as decrease in replication of viral replicon after 4 days by luciferase reporter gene assay; assay type: cell-based, Hepatitis C virus (isolate H77); settings: Huh-7, 96 h
[12] = Inhibition of Hepatitis C virus genotype 1a H77 replicon NS5A Q30R mutant transfected in human HuH7 cells assessed as decrease in replication of viral replicon after 4 days by luciferase reporter gene assay; assay type: cell-based, Hepatitis C virus (isolate H77); settings: Huh-7, 96 h
[13] = tested on: Hepatitis C virus (isolate H77); test: Resistance ratio of EC50 for Hepatitis C virus genotype 1a H77 replicon NS5A M28T mutant to EC50 for Hepatitis C virus genotype 1a H77 replicon NS5A
[14] = tested on: Hepatitis C virus (isolate H77); test: Resistance ratio of EC50 for Hepatitis C virus genotype 1a H77 replicon NS5A Q30R mutant to EC50 for Hepatitis C virus genotype 1a H77 replicon NS5A
[15] = tested on: Hepatitis C virus (isolate H77); test: Resistance ratio of EC50 for Hepatitis C virus genotype 1a H77 replicon NS5A Y93C mutant to EC50 for Hepatitis C virus genotype 1a H77 replicon NS5A
[16] = tested on: Hepatitis C virus (isolate H77); test: Resistance ratio of EC50 for Hepatitis C virus genotype 1a H77 replicon NS5A Y93H mutant to EC50 for Hepatitis C virus genotype 1a H77 replicon NS5A
[17] = tested on: Hepatitis C virus (isolate Con1); test: Ratio of EC50 for Hepatitis C virus genotype 1b Con1 replicon NS5A in presence of 40% human plasma to EC50 for Hepatitis C virus genotype 1b Con1 replicon NS5A in absence of 40% human plasma
[18] = Half life in CD1 mouse at 3 mg/kg, iv after 0.1 to 24 hrs; assay type: ADME, organism-based; settings: in vivo
[19] = Plasma clearance in CD1 mouse at 3 mg/kg, iv after 0.1 to 24 hrs; assay type: ADME, organism-based
[20] = Cmax in CD1 mouse at 3 mg/kg, po after 0.25 to 24 hrs; assay type: ADME, organism-based; design: dose 3 mg/kg, route oral; settings: in vivo
[21] = AUC in CD1 mouse at 3 mg/kg, po after 0.25 to 24 hrs; assay type: ADME, organism-based; design: time upper 24 hr, dose 3 mg/kg, time lower 0.25 hr, route oral; settings: in vivo
[22] = Oral bioavailability in CD1 mouse at 3 mg/kg after 0.25 to 24 hrs; assay type: ADME, organism-based; settings: in vivo
[23] = Half life in Sprague-Dawley rat at 3 mg/kg, iv administered as bolus dose after 0.1 to 24 hrs; assay type: ADME, organism-based; settings: in vivo
[24] = Half life in CD1 mouse at 5 mg/kg, iv after 0.1 to 24 hrs; assay type: ADME, organism-based; settings: in vivo
[25] = Plasma clearance in Sprague-Dawley rat at 3 mg/kg, iv administered as bolus dose after 0.1 to 24 hrs; assay type: ADME, organism-based
[26] = Plasma clearance in CD1 mouse at 5 mg/kg, iv after 0.1 to 24 hrs; assay type: ADME, organism-based
[27] = Cmax in Sprague-Dawley rat at 3 mg/kg, po administered via gavage after 0.25 to 24 hrs; assay type: ADME, organism-based; design: dose 3 mg/kg, route oral; settings: in vivo
[28] = Cmax in CD1 mouse at 5 mg/kg, po after 0.25 to 24 hrs; assay type: ADME, organism-based; design: dose 5 mg/kg, route oral; settings: in vivo
[29] = AUC in Sprague-Dawley rat at 3 mg/kg, po administered via gavage after 0.25 to 24 hrs; assay type: ADME, organism-based; design: time upper 24 hr, dose 3 mg/kg, time lower 0.25 hr, route oral; settings: in vivo
[30] = AUC in CD1 mouse at 5 mg/kg, po after 0.25 to 24 hrs; assay type: ADME, organism-based; design: time 0.25-24 hr, dose 5 mg/kg, route oral; settings: in vivo
[31] = Oral bioavailability in Sprague-Dawley rat at 3 mg/kg administered via gavage after 0.25 to 24 hrs; assay type: ADME, organism-based; settings: in vivo
[32] = Oral bioavailability in CD1 mouse at 5 mg/kg after 0.25 to 24 hrs; assay type: ADME, organism-based; settings: in vivo
[33] = Half life in CD1 mouse at 5 mg/kg, po after 0.25 to 24 hrs; assay type: ADME, organism-based; settings: in vivo
[34] = Half life in CD1 mouse at 15 mg/kg, po after 0.25 to 24 hrs; assay type: ADME, organism-based; settings: in vivo
[35] = Half life in beagle dog at 2.5 mg/kg, po administered via gavage after 0.25 to 24 hrs; assay type: ADME, organism-based, Canis lupus familiaris; settings: in vivo
[36] = Cmax in CD1 mouse at 15 mg/kg, po after 0.25 to 24 hrs; assay type: ADME, organism-based; design: dose 15 mg/kg, route oral; settings: in vivo
[37] = Cmax in beagle dog at 2.5 mg/kg, po administered via gavage after 0.25 to 24 hrs; assay type: ADME, organism-based, Canis lupus familiaris; design: dose 2.5 mg/kg, route oral; settings: in vivo
[38] = AUC in CD1 mouse at 15 mg/kg, po after 0.25 to 24 hrs; assay type: ADME, organism-based; design: time lower 0.25 hr, dose 15 mg/kg, time upper 24 hr, route oral; settings: in vivo
[39] = AUC in beagle dog at 2.5 mg/kg, po administered via gavage after 0.25 to 24 hrs; assay type: ADME, organism-based, Canis lupus familiaris; design: dose 2.5 mg/kg, time 0.25-24 hr, route oral; settings: in vivo
[40] = Half life in CD1 mouse at 3 mg/kg, po after 0.25 to 24 hrs; assay type: ADME, organism-based; settings: in vivo
[41] = Half life in CD1 mouse at 30 mg/kg, po after 0.25 to 24 hrs; assay type: ADME, organism-based; settings: in vivo
[42] = Cmax in CD1 mouse at 30 mg/kg, po after 0.25 to 24 hrs; assay type: ADME, organism-based; design: dose 30 mg/kg, route oral; settings: in vivo
[43] = AUC in CD1 mouse at 30 mg/kg, po after 0.25 to 24 hrs; assay type: ADME, organism-based; design: time lower 0.25 hr, dose 30 mg/kg, time upper 24 hr, route oral; settings: in vivo
[44] = Half life in Sprague-Dawley rat at 3 mg/kg, po administered via gavage after 0.25 to 24 hrs; assay type: ADME, organism-based; settings: in vivo

Compound | EC50 [1] | EC50 [2] | EC50 [3] | EC50 [4] | EC50 [5] | EC50 [6] | EC50 [7] | EC50 [8] | EC50 [10] | EC50 [11] | EC50 [12] | Ratio EC50 [13] | Ratio EC50 [14] | Ratio EC50 [15] | Ratio EC50 [16] | Cmax [20] | AUC [21] | Cmax [27] | AUC [29] | half-life [40] | other results
COC(=O)N[C@H](C(=O)N1CCC[C@H]1c1nc2cc([C@H]3CC[C@H](c4cc5nc([C@@H]6CCCN6C(=O)[C@@H](NC(=O)OC)C(C)C)[nH]c5cc4F)N3c3ccc(C(C)(C)C)cc3)c(F)cc2[nH]1)C(C)C | 2 to 8 pM | 0.216 nM | 7 pM | 0.096 nM | 0.098 nM | 9 pM | 8 pM | 8 pM | 15 pM | 4 pM | 0.005 nM | 2 | 3 | 3 | 30 | – | – | – | – | – | Ratio EC50 [9]: 15 to 30; Ratio EC50 [17]: 15 to 30
COC(=O)N[C@H](C(=O)N1CCC[C@H]1C(=O)Nc1ccc([C@H]2CC[C@@H](c3ccc(NC(=O)[C@@H]4CCCN4C(=O)[C@@H](NC(=O)OC)C(C)C)cc3)N2c2ccc(C(C)(C)C)cc2)cc1)C(C)C | – | – | – | – | – | – | – | – | – | – | – | – | – | – | – | 570 ng/mL | 11000 ng·h/mL | – | – | – | half-life [18]: 660 min; clearance [19]: 1.83 mL/min/kg; bioavailability [22]: 42%
COC(=O)N[C@H](C(=O)N1CCC[C@H]1c1nc2ccc([C@H]3CC[C@H](c4ccc5nc([C@@H]6CCCN6C(=O)[C@@H](NC(=O)OC)C(C)C)[nH]c5c4)N3c3ccc(C(C)(C)C)cc3)cc2[nH]1)C(C)C | 2 to 11 pM | 0.155 nM | 14 pM | 0.272 nM | 0.155 nM | 10 pM | 14 pM | 6 pM | – | 8 pM | 0.027 nM | 4 | 14 | 8 | 239 | – | – | 60 ng/mL | 560 ng·h/mL | – | Ratio EC50 [9]: 10 to 20; half-life [23]: 246 min; half-life [24]: 120 min; clearance [25]: 17.7 mL/min/kg; clearance [26]: 6.33 mL/min/kg; Cmax [28]: 270 ng/mL; AUC [30]: 1390 ng·h/mL; bioavailability [31]: 20%; bioavailability [32]: 11%; half-life [33]: 156 min
COC(=O)N[C@H](C(=O)N1CCC[C@H]1c1nc2cc([C@H]3CC[C@H](c4ccc5[nH]c([C@@H]6CCCN6C(=O)[C@@H](NC(=O)OC)C(C)C)nc5c4)N3c3cc(F)c(N4CCCCC4)c(F)c3)ccc2[nH]1)C(C)C | 3 to 6 pM | 0.154 nM | 6 pM | 0.261 nM | 0.013 nM | 7 pM | 9 pM | 5 pM | 7 pM | 10 pM | 0.025 nM | 3 | 8 | 6 | 163 | 220 ng/mL | 1800 ng·h/mL | 50 ng/mL | 30 ng·h/mL | 234 min | half-life [34]: 192 min; half-life [35]: 168 min; Cmax [36]: 930 ng/mL; Cmax [37]: 200 ng/mL; AUC [38]: 9250 ng·h/mL; AUC [39]: 1230 ng·h/mL
COC(=O)N[C@H](C(=O)N1CCC[C@H]1c1nc2cc([C@H]3CC[C@H](c4cc5nc([C@@H]6CCCN6C(=O)[C@@H](NC(=O)OC)C(C)C)[nH]c5cc4F)N3c3cc(F)c(N4CCCCC4)c(F)c3)c(F)cc2[nH]1)C(C)C | 3 to 4 pM | 0.096 nM | 7 pM | 0.153 nM | 0.012 nM | 4 pM | 6 pM | 7 pM | 7 pM | – | 0.008 nM | 2 | 3 | 4 | 27 | 370 ng/mL | 4410 ng·h/mL | 190 ng/mL | 2880 ng·h/mL | 366 min | half-life [35]: 330 min; half-life [41]: 330 min; Cmax [37]: 1380 ng/mL; Cmax [42]: 3390 ng/mL; AUC [39]: 17200 ng·h/mL; AUC [43]: 48200 ng·h/mL; half-life [44]: 348 min
COC(=O)N[C@H](C(=O)N1CCC[C@H]1c1nc2cc([C@H]3CC[C@H](c4cc5[nH]c([C@@H]6CCCN6C(=O)[C@@H](NC(=O)OC)C(C)C)nc5cc4F)N3c3ccc(C(C)(C)C)cc3)c(F)cc2[nH]1)C(C)C | – | – | – | – | – | – | – | – | – | – | – | – | – | – | – | 630 ng/mL | 5790 ng·h/mL | – | – | 264 min | half-life [34]: 288 min; Cmax [36]: 3180 ng/mL; AUC [38]: 36200 ng·h/mL

— ChEMBL document CHEMBL3864160, “Discovery of fluorobenzimidazole HCV NS5A inhibitors” (Bioorg Med Chem Lett, 2016)
